{"source": "paper PMC12920416", "about": "“Preclinical development of [^18F]TAAR1-2203 as a PET radioligand for imaging TAAR1 expression and receptor occupancy” (European Journal of Nuclear Medicine and Molecular Imaging, 2025)", "key": {"[1]": {"target": "mouse TAAR1 (Mus musculus, UniProt Q923Y8)", "sequence (Q923Y8 whole entry)": "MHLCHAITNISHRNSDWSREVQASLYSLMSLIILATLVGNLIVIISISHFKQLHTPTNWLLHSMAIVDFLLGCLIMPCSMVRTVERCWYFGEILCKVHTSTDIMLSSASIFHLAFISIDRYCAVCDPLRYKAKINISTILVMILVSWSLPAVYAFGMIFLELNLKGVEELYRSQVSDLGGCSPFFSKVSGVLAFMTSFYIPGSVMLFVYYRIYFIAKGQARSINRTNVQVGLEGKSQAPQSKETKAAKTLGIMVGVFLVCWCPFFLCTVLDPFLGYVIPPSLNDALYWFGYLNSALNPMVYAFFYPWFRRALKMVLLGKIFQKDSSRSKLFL", "test": "Competition binding assay, mouse TAAR1"}, "[2]": {"target": "rat TAAR1 (Rattus norvegicus, UniProt Q923Y9)", "sequence (Q923Y9 whole entry)": "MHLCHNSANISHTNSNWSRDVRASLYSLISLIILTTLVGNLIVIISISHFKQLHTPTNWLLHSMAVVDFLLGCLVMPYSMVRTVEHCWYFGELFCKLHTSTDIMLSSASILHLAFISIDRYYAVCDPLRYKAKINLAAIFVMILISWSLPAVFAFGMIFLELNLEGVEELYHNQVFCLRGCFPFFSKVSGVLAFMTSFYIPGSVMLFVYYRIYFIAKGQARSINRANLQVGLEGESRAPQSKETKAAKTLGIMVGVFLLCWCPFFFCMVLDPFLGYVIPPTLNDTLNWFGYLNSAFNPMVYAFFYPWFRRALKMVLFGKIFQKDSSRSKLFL", "test": "Competition binding assay, rat TAAR1"}, "[3]": {"target": "TAAR1", "test": "Competition binding assay, cynomolgus monkey TAAR1"}, "[4]": {"target": "T1, TAAR1 (Homo sapiens, UniProt Q96RJ0)", "T1 sequence (Q96RJ0 1-339)": "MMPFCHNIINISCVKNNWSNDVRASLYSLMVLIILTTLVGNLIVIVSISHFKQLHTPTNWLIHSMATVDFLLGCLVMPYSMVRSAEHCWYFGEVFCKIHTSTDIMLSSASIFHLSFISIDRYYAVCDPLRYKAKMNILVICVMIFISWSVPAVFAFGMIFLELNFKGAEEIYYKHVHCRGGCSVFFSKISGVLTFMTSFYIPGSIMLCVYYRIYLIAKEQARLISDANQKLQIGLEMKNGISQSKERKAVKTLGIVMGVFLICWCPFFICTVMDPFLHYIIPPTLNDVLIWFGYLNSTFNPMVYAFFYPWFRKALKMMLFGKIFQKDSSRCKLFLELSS", "test": "Competition binding assay, human TAAR1"}, "[5]": {"test": "Plasma stability of non-radioactive reference, mouse plasma", "assay_type": "in vitro ADME", "settings": "37 °C, up to 5 h"}, "[6]": {"test": "Plasma stability of non-radioactive reference, rat plasma", "assay_type": "in vitro ADME", "settings": "37 °C, up to 5 h"}, "[7]": {"test": "Plasma stability of non-radioactive reference, non-human primate plasma", "assay_type": "in vitro ADME", "settings": "37 °C, up to 5 h"}, "[8]": {"test": "Plasma stability of non-radioactive reference, human plasma", "assay_type": "in vitro ADME", "settings": "37 °C, up to 5 h"}, "[9]": {"test": "4-week repeat dose toxicity study, dogs", "assay_type": "in vivo", "settings": "4-week repeat dose toxicity study"}, "[10]": {"test": "4-week repeat dose toxicity study, rats", "assay_type": "in vivo", "settings": "4-week repeat dose toxicity study"}, "[11]": {"test": "Aqueous solubility", "assay_type": "physicochemical", "settings": "pH 6.5 in 0.05 M phosphate buffer", "text": "(§1) ^a Aqueous solubility at pH 6.5 in 0.05 M phosphate buffer; ^b pH 7.4"}, "[12]": {"test": "logD (physicochemical profiling)", "settings": "pH 7.4", "text": "as §1"}, "[13]": {"test": "PAMPA permeability", "assay_type": "in vitro ADME", "text": "(§2) Supplement 259_2025_7564_MOESM1_ESM.docx, table 1: Supplemental Table 1. Physicochemical properties of TAAR1-2203. | column: 194.2"}, "[14]": {"test": "Chemical stability in aqueous buffer", "assay_type": "physicochemical", "settings": "pH 1, 4, 6.5 and 8 for 2 h at 37 °C", "text": "as §2"}, "[15]": {"test": "Clearance in human liver microsomes", "assay_type": "in vitro ADME", "text": "(§3) Supplement 259_2025_7564_MOESM1_ESM.docx, table 2: Supplemental Table 2. ADME profile of TAAR1 ligand TAAR1-2203. | column: 14 / 10"}, "[16]": {"test": "Clearance in rat liver microsomes", "assay_type": "in vitro ADME", "text": "as §3"}, "[17]": {"test": "Clearance in human hepatocytes", "assay_type": "in vitro ADME", "text": "as §3"}, "[18]": {"test": "Clearance in rat hepatocytes", "assay_type": "in vitro ADME", "text": "as §3"}, "[19]": {"test": "Plasma protein binding of TAAR1-2203, human plasma", "assay_type": "in vitro ADME"}, "[20]": {"test": "Plasma protein binding of TAAR1-2203, rat plasma", "assay_type": "in vitro ADME"}, "[21]": {"target": "human P-glycoprotein (Homo sapiens, UniProt P08183)", "sequence (P08183 whole entry)": "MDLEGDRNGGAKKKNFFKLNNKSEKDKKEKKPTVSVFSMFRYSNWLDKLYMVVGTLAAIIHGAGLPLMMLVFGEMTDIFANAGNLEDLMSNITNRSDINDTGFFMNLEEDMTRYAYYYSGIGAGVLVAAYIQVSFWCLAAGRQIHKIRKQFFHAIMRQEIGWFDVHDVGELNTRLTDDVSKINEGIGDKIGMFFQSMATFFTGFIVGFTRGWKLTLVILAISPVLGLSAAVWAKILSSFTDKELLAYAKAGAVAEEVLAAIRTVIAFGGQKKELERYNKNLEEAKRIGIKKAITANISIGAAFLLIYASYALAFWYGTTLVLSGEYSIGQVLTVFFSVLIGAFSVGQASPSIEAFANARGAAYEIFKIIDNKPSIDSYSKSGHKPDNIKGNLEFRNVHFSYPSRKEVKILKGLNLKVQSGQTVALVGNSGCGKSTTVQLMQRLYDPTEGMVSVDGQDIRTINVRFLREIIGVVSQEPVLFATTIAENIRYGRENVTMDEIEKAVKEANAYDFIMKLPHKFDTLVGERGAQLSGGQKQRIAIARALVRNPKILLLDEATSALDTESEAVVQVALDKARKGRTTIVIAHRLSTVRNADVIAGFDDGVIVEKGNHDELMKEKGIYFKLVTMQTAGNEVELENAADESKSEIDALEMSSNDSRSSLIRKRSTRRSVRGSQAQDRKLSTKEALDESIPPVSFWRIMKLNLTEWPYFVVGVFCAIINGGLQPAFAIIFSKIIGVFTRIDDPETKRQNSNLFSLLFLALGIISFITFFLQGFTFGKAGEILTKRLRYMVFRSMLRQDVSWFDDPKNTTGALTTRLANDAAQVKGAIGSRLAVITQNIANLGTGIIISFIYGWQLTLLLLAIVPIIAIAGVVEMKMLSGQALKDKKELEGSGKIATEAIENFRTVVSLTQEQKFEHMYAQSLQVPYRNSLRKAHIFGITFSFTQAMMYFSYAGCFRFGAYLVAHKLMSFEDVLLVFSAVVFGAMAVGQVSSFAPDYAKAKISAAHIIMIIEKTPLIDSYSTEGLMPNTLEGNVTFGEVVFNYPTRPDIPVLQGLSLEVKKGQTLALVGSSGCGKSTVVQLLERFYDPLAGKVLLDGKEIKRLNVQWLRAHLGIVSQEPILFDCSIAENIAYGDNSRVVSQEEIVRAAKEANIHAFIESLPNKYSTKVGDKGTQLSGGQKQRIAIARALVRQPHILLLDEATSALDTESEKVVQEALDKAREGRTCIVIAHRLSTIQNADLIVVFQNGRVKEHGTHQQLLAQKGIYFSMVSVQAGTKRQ", "test": "P-glycoprotein efflux assay, human P-gp", "assay_type": "in vitro ADME"}, "[22]": {"target": "mouse P-glycoprotein (Mus musculus, UniProt P21447)", "sequence (P21447 whole entry)": "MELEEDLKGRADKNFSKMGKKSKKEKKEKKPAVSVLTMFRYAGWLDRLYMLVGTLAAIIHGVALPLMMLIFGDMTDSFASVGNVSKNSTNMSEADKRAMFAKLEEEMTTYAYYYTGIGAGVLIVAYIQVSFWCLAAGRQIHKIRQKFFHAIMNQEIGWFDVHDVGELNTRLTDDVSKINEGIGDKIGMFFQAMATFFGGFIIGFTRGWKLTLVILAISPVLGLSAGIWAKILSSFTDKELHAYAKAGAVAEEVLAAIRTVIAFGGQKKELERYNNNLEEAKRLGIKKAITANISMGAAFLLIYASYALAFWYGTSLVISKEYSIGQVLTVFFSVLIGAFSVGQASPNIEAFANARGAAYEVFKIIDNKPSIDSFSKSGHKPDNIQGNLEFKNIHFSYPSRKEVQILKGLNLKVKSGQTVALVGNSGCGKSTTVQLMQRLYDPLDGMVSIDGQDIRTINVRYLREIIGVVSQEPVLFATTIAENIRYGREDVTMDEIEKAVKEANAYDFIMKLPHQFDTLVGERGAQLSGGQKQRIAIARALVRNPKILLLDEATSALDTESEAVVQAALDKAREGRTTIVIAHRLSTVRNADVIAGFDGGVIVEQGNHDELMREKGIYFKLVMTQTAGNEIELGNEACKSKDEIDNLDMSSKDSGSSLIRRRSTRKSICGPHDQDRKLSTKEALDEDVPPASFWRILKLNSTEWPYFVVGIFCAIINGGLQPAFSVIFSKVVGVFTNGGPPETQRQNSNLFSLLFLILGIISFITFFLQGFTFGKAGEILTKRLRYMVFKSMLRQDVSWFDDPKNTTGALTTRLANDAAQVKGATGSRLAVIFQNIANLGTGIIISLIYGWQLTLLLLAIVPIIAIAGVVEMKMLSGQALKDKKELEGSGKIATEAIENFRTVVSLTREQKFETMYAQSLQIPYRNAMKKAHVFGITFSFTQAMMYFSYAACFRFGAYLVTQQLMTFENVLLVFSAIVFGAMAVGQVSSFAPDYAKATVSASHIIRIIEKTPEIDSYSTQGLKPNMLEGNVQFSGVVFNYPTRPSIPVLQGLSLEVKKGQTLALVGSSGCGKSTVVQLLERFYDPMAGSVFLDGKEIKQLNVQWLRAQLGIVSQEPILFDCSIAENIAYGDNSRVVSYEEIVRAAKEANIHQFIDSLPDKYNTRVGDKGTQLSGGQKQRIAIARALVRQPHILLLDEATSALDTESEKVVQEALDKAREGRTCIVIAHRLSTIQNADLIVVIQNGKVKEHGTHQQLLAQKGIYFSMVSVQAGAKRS", "test": "P-glycoprotein efflux assay, mouse P-gp", "assay_type": "in vitro ADME"}}}
{"compound": "Cc1c(F)cccc1[C@H]1COC(N)=N1", "note": "[TAAR1-2203]", "values": [{"measurement": "Ki", "setting": "[1]", "result": 0.9, "unit": "nM"}, {"measurement": "Ki", "setting": "[2]", "result": 7.4, "unit": "nM"}, {"measurement": "Ki", "setting": "[3]", "result": 22.5, "unit": "nM"}, {"measurement": "Ki", "setting": "[4]", "result": 5.7, "unit": "nM"}, {"measurement": "Stability in mouse plasma", "setting": "[5]", "result": "No degradation was observed"}, {"measurement": "Stability in rat plasma", "setting": "[6]", "result": "No degradation was observed"}, {"measurement": "Stability in non-human primate plasma", "setting": "[7]", "result": "No degradation was observed"}, {"measurement": "Stability in human plasma", "setting": "[8]", "result": "No degradation was observed"}, {"measurement": "Doses well tolerated without adverse events, dogs", "setting": "[9]", "result": "up to 3 mg/kg"}, {"measurement": "Doses well tolerated without adverse events, rats", "setting": "[10]", "result": "≤ 10", "unit": "mg/kg"}, {"measurement": "Solubility", "setting": "[11]", "result": 210, "unit": "µg/mL"}, {"measurement": "logD", "setting": "[12]", "result": 1.12}, {"measurement": "PAMPA Peff", "setting": "[13]", "result": 14.5, "unit": "cm/s*10E^-6"}, {"measurement": "Chemical stability in aqueous buffer", "setting": "[14]", "result": "Stable at pH 1, 4, 6.5 and 8 for 2 h at 37 °C"}, {"measurement": "human clearance in microsomes", "setting": "[15]", "result": 14, "unit": "µL/min/mg protein"}, {"measurement": "rat clearance in microsomes", "setting": "[16]", "result": 10, "unit": "µL/min/mg protein"}, {"measurement": "human clearance in hepatocytes", "setting": "[17]", "result": 10, "unit": "µL/min/10E6 cells"}, {"measurement": "rat clearance in hepatocytes", "setting": "[18]", "result": 1.7, "unit": "µL/min/10E6 cells"}, {"measurement": "human plasma free fraction", "setting": "[19]; human", "result": 62, "unit": "%"}, {"measurement": "Free fraction in human plasma", "setting": "[19]; non-radioactive TAAR1-2203", "result": "approximately 60%"}, {"measurement": "Free fraction in rodent plasma", "setting": "[20]; non-radioactive TAAR1-2203", "result": "approximately 60%"}, {"measurement": "Free fraction in rat plasma", "setting": "[20]; rat", "result": 61, "unit": "%"}, {"measurement": "Papp, AB inhibitor, human P-glycoprotein assay", "setting": "[21]", "result": 41.2, "unit": "×10⁻⁶ cm/s"}, {"measurement": "human P-glycoprotein efflux ratio", "setting": "[21]", "result": 1.2}, {"measurement": "Papp, AB inhibitor, mouse P-glycoprotein assay", "setting": "[22]", "result": 31.6, "unit": "×10⁻⁶ cm/s"}, {"measurement": "mouse P-glycoprotein efflux ratio", "setting": "[22]", "result": 1.0}]}
